Patent US10292976B2, “Anti-malarial agent” (RIKEN, priority 2014, dated 2019)
Like-named read-outs stand apart in the source and are kept apart here.

Columns and labels:
[1] = test system: drug-resistant malaria parasite K1 strain; test: Antimalarial activity by LDH assay, K1 strain; type: cell-based, Plasmodium falciparum
Procedure: (§1) The LDH assay was carried out according to the following procedure. That is, 0.5 μL of a solution of each compound in DMSO was added to 100 μL of a culture liquid of erythrocytes (88% RPMI solution; 2% erythrocytes, provided by the Japanese Red Cross Society; and 10% human serum, provided by the Japanese Red Cross Society) infected with falciparum malaria parasites (Plasmodium falciparum: 3D7 strain) (infection rate of erythrocytes, 0.3%). The resulting culture liquid was subjected to culture in a 96-well plate under an atmosphere of 5% CO2, 5% O2, and 90% N2 at 37° C. for three days. Subsequently, the culture liquid was cooled at −80° C. for three hours, and then returned to room temperature. After addition of 150 μL of an LDH enzyme reaction liquid (0.15 mg/mL diaphorase, 37.5 μL/mL of 50% sodium lactate, 0.17 mg/mL NBT, 0.11 mg/mL APAD, 0.16 mL/mL of 1 M Tris-HCl (pH 8), and 8.3 μL/mL of Tween 20), the absorbance at 620 nm was measured.
(§2) According to the same procedure as in Experiment 1, the antimalarial activities of metal complexes (M-L6) synthesized by mixing various kinds of metal ions (MSO4: M=Zn, Fe, Cu, Co, Ni, or Mn) with L6 at a molar ratio of 1:1 were evaluated by LDH assay.
According to the same procedure as in Experiment 1, the antimalarial activities of L18 and di-2-pyridylketone 4,4-dimethyl-3-thiosemicarbazone (Sigma) against the malaria parasite 3D7 strain and the drug-resistant malaria parasite K1 strain were evaluated by LDH assay.
According to the same procedure as in Experiment 1, the antimalarial activities of 4′-(4-Pyridyl)-2,2′:6′,2″-terpyridine (Tokyo Chemical Industry) against the malaria parasite 3D7 strain and the drug-resistant malaria parasite K1 strain were evaluated by LDH assay.

[2] = test system: Plasmodium falciparum: 3D7 strain; test: Antimalarial activity by LDH assay, 3D7 strain; type: cell-based; settings: for antimalarial activity (LDH assay, FIG. 2): 10 nM to 10 μM
Procedure: Compounds that chelate metal ions in various modes (L1 to L25 in FIG. 1) were selected, and their antimalarial activities were evaluated by LDH assay. Since infection with malaria causes an increase in the LDH activity, the evaluation can be made based on the criteria that the lower the detected LDH activity, the higher the antimalarial activity.
as §1
By the same procedure as in Experiment 1, erythrocytes infected with malaria were treated with L6 (about 40 nM) together with iron ion (about 50 μM), copper ion (about 1 μM), or zinc ion (about 10 μM), and the antimalarial activity was evaluated by LDH assay.
as §2

[3] = test system: HeLa: human cervical cancer cells; test: Cytotoxicity by WST-8 assay, HeLa; type: cell-based; settings: Table 3, 48 hours, WST-8
Procedure: (§3) After treating various kinds of cells (HEK293T: human embryonic kidney cells; HeLa: human cervical cancer cells; NIH3T3: mouse fibroblast cells; tsNRK: rat kidney cells; and 3Y1: rat fibroblasts) with a metal chelator for 48 hours, the cytotoxicities of the cells were evaluated by WST-8 assay.
(§4) Subsequently, the following cell types: HL60 (human promyelocytic leukemia cells), HeLa (human cervical cancer cells), C3H10T1/2 (murine multipotential mesenchymal cells), and HEK293 (human embryonic kidney 293 cells); were treated with metal complexes M-L6 (M=Zn, Fe, Cu, Co, Ni, and Mn) for 48 hours, and then subjected to WST-8 assay to perform evaluation of the cytotoxicity of each kind of metal complex.

[4] = test system: C3H10T1/2 (murine multipotential mesenchymal cells); test: Cytotoxicity by WST-8 assay, C3H10T1/2; type: cell-based; settings: Table 3, 48 hours
Procedure: as §4

[5] = test system: HL60 (human promyelocytic leukemia cells); test: Cytotoxicity by WST-8 assay, HL60; type: cell-based; settings: Table 3, 48 hours
Procedure: as §4

[6] = test system: HEK293 (human embryonic kidney 293 cells); test: Cytotoxicity by WST-8 assay, HEK293; type: cell-based; settings: Table 3, 48 hours
Procedure: as §4

malaria parasites = settings: cited from earlier work
[7] = Cytotoxicity by WST-8 assay, tsNRK; type: cell-based; settings: rat, tsNRK cells
Procedure: as §3

[8] = Cytotoxicity by WST-8 assay, HEK293T; type: cell-based; settings: human, HEK293T cells
Procedure: as §3

[9] = Cytotoxicity by WST-8 assay, 3Y1; type: cell-based; settings: rat, 3Y1 cells, 3Y1, 48 hours
Procedure: as §3

[10] = Cytotoxicity by WST-8 assay, HeLa; type: cell-based, human; settings: human, HeLa cells, HeLa, 48 hours, read-out: IC50 value, cytotoxicity
Procedure: as §3, §4

[11] = Cytotoxicity by WST-8 assay, NIH3T3; type: cell-based; settings: mouse, NIH3T3 cells, NIH3T3, 48 hours
Procedure: as §3

[12] = test system: Dd2 strain (drug-resistant malaria parasites); test: Antimalarial activity by LDH assay, Dd2 strain; type: cell-based, Plasmodium falciparum; settings: Table 2, LDH assay, Experiment 6; read-out: IC50 antimalarial activity, Dd2
[13] = test system: mouse malaria parasites (Plasmodium berghei ANKA strain); test: Life-prolonging effect in malaria-infected mice, oral administration; type: in vivo; settings: oral 200 mg/kg on Day 1, Day 3, and Day 6
Procedure: To mice (7 weeks old, Balb/c, male), erythrocytes infected with mouse malaria parasites (Plasmodium berghei ANKA strain) (total number of erythrocytes per mouse, about 10^7; rate of malaria-infected erythrocytes, 0.3%) were intraperitoneally injected. L6 was administered (20 mg/kg, intraperitoneal injection) to each of the thus obtained malaria-infected mice, and the rate of malaria-infected erythrocytes was measured. As a result, on Day 2 to Day 6 after the infection, the infection rate tended to increase in the negative control to which only DMSO was administered. […] The effect of L6 to reduce the infection rate was almost equivalent to the effect of an existing drug, chloroquine (CQ).
To malaria-infected mice obtained by the same procedure as in Experiment 4, an aqueous solution of L6 or the zinc complex Zn-L6 was orally administered (at a dose of 200 mg/kg on Day 1, Day 3, and Day 6; N=6), and changes in the number of surviving individuals were investigated. […] That is, it is thought that, by formation of metal complex with zinc ion, L6 can remarkably suppress the toxicity in vivo while sufficiently maintaining the antimalarial activity.

[14] = test system: HL60, HeLa, C3H10T1/2, and HEK293; test: Cytotoxicity by WST-8 assay, summary for the four cell types of Experiment 6; type: cell-based; settings: C3H10T1/2, HEK293, 48 hours
Procedure: as §4

[15] = Plasmodium falciparum, LDH assay, values in text, read-out: IC50 antimalarial activity against the K1 strain
[16] = Plasmodium falciparum, 3D7, 3D7 strain, values in text, read-out: IC50 value for the antimalarial activity based on the LDH assay
[17] = Table 2, LDH assay, Experiment 6, read-out: IC50 antimalarial activity, 3D7

| IC50 [2, 16] [µM] | Compound | IC50 [3] [µM] | IC50 [4] [µM] | IC50 [5] [µM] | IC50 [2, 17] [µM] | IC50 [6] [µM] | further results |
| --- | --- | --- | --- | --- | --- | --- | --- |
| ~0.16 | c1ccc(-c2cc(-c3ccncc3)cc(-c3ccccn3)n2)nc1 [4′-(4-Pyridyl)-2,2′:6′,2″-terpyridine] |  |  |  |  |  | IC50 [1, 15]: ~0.07 µM |
| ~0.07 | O=C(Nc1cccc(CN(Cc2ccccn2)Cc2ccccn2)n1)c1ccccc1 [Bis(2-pyridylmethyl)(6-benzamide-2-pyridylmethyl)amine] |  |  |  |  |  |  |
|  | O=S(=O)([O-])[O-].[Co+2].c1ccc(CN(Cc2ccccn2)Cc2ccccn2)nc1 [Co-L6] | 18 | 18 | 6.6 | 0.55 | 20.6 |  |
|  | O=S(=O)([O-])[O-].[Cu+2].c1ccc(CN(Cc2ccccn2)Cc2ccccn2)nc1 [Cu-L6] | 13 | 12 | 5 | 0.12 | 6 |  |
|  | CC(=O)N(O)CCCCCNC(=O)CCC(=O)N(O)CCCCCNC(=O)CCC(=O)N(O)CCCCCN [DFO, desferrioxamine] |  |  |  |  |  | IC50 (malaria parasites; Non-patent Document 3, read-out: antimalarial activity IC50): 21 µM |
|  | O=S(=O)([O-])[O-].[Fe+2].c1ccc(CN(Cc2ccccn2)Cc2ccccn2)nc1 [Fe-L6] | 9.5 | 9.6 | 4.8 | 0.19 | 6.1 |  |
|  | Nc1cc2cccnc2c2ncccc12 [L3, (1,10)-Phenanthrolin-5-amine] |  |  |  |  |  | IC50 at 48 h ([7]; 1st measurement): 6.12 µM; IC50 at 48 h ([7]; 2nd measurement): 3.08 µM; IC50 at 48 h ([8]; 1st measurement): 0.49 µM; IC50 at 48 h ([8]; 2nd measurement): 0.47 µM; IC50 at 48 h ([9]; 1st measurement): 0.73 µM; IC50 at 48 h ([9]; 2nd measurement): 0.67 µM |
|  | c1ccc(CN(CCN(Cc2ccccn2)Cc2ccccn2)Cc2ccccn2)nc1 [L7, N,N,N′,N′-Tetrakis(2-pyridylmethyl)ethylenediamine, reference compound] |  |  |  |  |  | IC50 at 48 h ([10]; 1st measurement (Table 1)): 5.53 µM; IC50 at 48 h ([10]; 2nd measurement (Table 1)): 4.96 µM; IC50 at 48 h ([7]; 1st measurement): 1.84 µM; IC50 at 48 h ([7]; 2nd measurement): 2.09 µM; IC50 at 48 h ([8]; 1st measurement): 1.99 µM; IC50 at 48 h ([8]; 2nd measurement): 3.14 µM; IC50 at 48 h ([9]; 1st measurement): 5.11 µM; IC50 at 48 h ([9]; 2nd measurement): 4.93 µM; IC50 at 48 h ([11]; 1st measurement): 1.66 µM; IC50 at 48 h ([11]; 2nd measurement): 1.79 µM; inhibition of infection with malaria parasites (malaria parasites; Non-patent Document 1): inhibits infection with malaria parasites |
|  | c1ccc(-c2ccnc3c2ccc2c(-c4ccccc4)ccnc23)cc1 [L17, 4,7-Diphenyl-1,10-phenanthroline] |  |  |  |  |  | antimalarial activity (LDH assay, FIG. 2) ([2]; result in words): relatively strong antimalarial activity |
| ~0.28 | c1ccc(-c2cccc(-c3ccccn3)n2)nc1 [L18, 2,2′:6′,2″-Terpyridine] |  |  |  |  |  | IC50 [1, 15]: ~0.12 µM; antimalarial activity (LDH assay, FIG. 2) ([2]; result in words): relatively strong antimalarial activity |
|  | O=S(=O)([O-])[O-].[Mn+2].c1ccc(CN(Cc2ccccn2)Cc2ccccn2)nc1 [Mn-L6] | 4.5 | 4.2 | 1.5 | 0.11 | 3.7 |  |
|  | O=S(=O)([O-])[O-].[Ni+2].c1ccc(CN(Cc2ccccn2)Cc2ccccn2)nc1 [Ni-L6] | 32 | 54 | 16 | 0.74 | 47.6 |  |
|  | O=S(=O)([O-])[O-].[Zn+2].c1ccc(CN(Cc2ccccn2)Cc2ccccn2)nc1 [Zn-L6] | > 100 | > 100 | > 100 | 0.093 | > 100 | IC50 [12]: 0.166 µM; cure / infection rate of malaria [13]: completely cured mice, in which the infection rate of malaria was 0%, could be found; life-prolonging effect (number of surviving individuals) [13]: significantly better life-prolonging effect than in the control; IC50 ([1]; Table 2, LDH assay, Experiment 6, read-out: IC50 antimalarial activity, K1): 0.089 µM; IC50 [14]: > 100 µM; antimalarial activity of metal complex compared to L6 alone ([2]; LDH assay, metal ion:L6 molar ratio 1:1, result in words): almost the same as that in the case of L6 alone |
| ~0.016 | C[C@@H]1CC[C@H]2[C@@H](C)C(=O)O[C@@H]3O[C@@]4(C)CC[C@@H]1[C@]32OO4 [artemisinin, reference compound] |  |  |  |  |  |  |
|  | CCN(CC)CCCC(C)Nc1ccnc2cc(Cl)ccc12 (stereo not drawn) [chloroquine, reference compound] |  |  |  |  |  | IC50 ([2]; Plasmodium falciparum, 3D7, read-out: IC50 value for the antimalarial activity based on the LDH assay): ~0.045 µM |
| ~0.004 | CN(C)C(=S)NN=C(c1ccccn1)c1ccccn1 [di-2-pyridylketone 4,4-dimethyl-3-thiosemicarbazone] |  |  |  |  |  | IC50 [1, 15]: ~0.003 µM |
| ~0.002 | CN(C(=S)NN=C(c1ccccn1)c1ccccn1)C1CCCCC1 [di-2-pyridylketone-4-cyclohexyl-4-methyl-3-thiosemicarbazone] |  |  |  |  |  |  |
